From patent US9580379B2, “Xanthine oxidase inhibitors and methods of use” (Baylor College of Medicine, priority 2014, dated 2017)

Experiments:
[1] = biological target: T1, XO (Bos taurus, UniProt P80457); assay: Conversion of DHNB to products by XO / reaction of XO and DHNB; format: biochemical, bovine
T1 construct: Xanthine oxidase from bovine milk; purchased Sigma Chemical Co. (St. Louis, Mo.); host or cells: bovine milk
Experimental: Negative electrospray ionization-mass spectrometry (ESI-MS) and tandem (MSMS) were applied to detect and confirm the reaction products of DHNB with XO. All mass spectrometric experiments were performed on an API 3200-Qtrap triple quadrupole mass spectrometer (Applied Biosystem/MDS SCIEX; Foster City, Calif.) equipped with a TurbolonSpray™ source. The main working parameters for mass spectrum were set as follows: ion-spray voltage, −4.5 kV; ion source temperature, 600° C.; gas 1, 40 psi; gas 2, 40 psi; curtain gas, 20 psi; collision gas, high.
After that, the enzymatic activity of XO was recovered.

[2] = DPPH scavenging assay; conditions: 20 μM compound, 100 μM DPPH, compared with vitamin C
Experimental: DPPH scavenging assay—The abilities of the polyphenols described herein to scavenge the DPPH radical were measured optically by monitoring the decreases of their absorptions at […]. […] DPPH was used at a concentration of 100 μM. Their scavenging activities were compared with that of vitamin C.

[3] = HOCl scavenging assay; conditions: 20 μM, compared with vitamin C
Experimental: HOCl scavenging assay—HOCl was prepared immediately before use by adjusting the pH of a 1% (v/v) solution of NaOCl to pH 6.2 with 0.6 M sulfuric acid. The concentration was further determined spectrophotometrically at 235 nm using the molar extinction coefficient of 100 M^−1 cm^−1. 5-Thio-2-nitrobenzoic acid (TNB) was prepared by reducing 5,5′-dithio-bis(2-nitrobenzoic acid) (DTNB) with sodium borohydride in phosphate buffer. The final concentrations of reagents used in the assay are as follows: 25 μM HOCl, 70 μM TNB, 0 to 200 μM antioxidants, phosphate buffer, 50 mM, pH 6.6. The HOCl scavenging assay was based on the inhibition of TNB oxidation to DTNB induced by HOCl.

[4] = Peroxynitrite scavenging assay; conditions: 25 μM ONOO−, pH 7.4 (FIG. 7C)
Experimental: Peroxynitrite scavenging assay—Peroxynitrite (ONOO—) was generated by mixing 5 mL acidic solution (0.6 M HCl) of H2O2 (0.7 M) and 5 mL of 0.6 M KNO2 in an ice bath for 1 second and the reaction was quenched with 5 mL of ice-cold 1.2 M NaOH. Residual H2O2 was removed using granular MnO2 prewashed with 1.2 M NaOH and the reaction mixture was then left overnight at −20° C. Concentrations of ONOO^− were determined before each experiment at 302 nm using a molar extinction coefficient of 1,670 M^−1 cm^−1. The final concentrations of reagents used in the assay are as follows: 25 μM ONOO^−, 10 μM DTPA, 5 μM DHR 123, 0.1 M phosphate buffer, pH 7.4. The ONOO^− scavenging assay was performed by monitoring the oxidation of dihydrorhodamine (DHR 123) by ONOO^− spectrophotometrically at 500 nm. […] Vitamin C was used as a positive control. The concentration dependent effects of these compounds on ONOO^− scavenging were also studied and compared with that of vitamins C and E (FIG. 10).

[5] = tested on: allantoxanamide induced hyperuricemic mice; assay: Hypouricemic effect in allantoxanamide induced hyperuricemic mice; format: in vivo; conditions: 100 mg/kg oral before allantoxanamide injection
Experimental: A hyperuricemia mouse model was used. Allantoxanamide, a potent uricase inhibitor, was used to induce hyperuricemia in mice in this study. […] The mice were subsequently intraperitoneally injected with allantoxanamide at 200 mg/kg in 0.5% CMC-Na in a volume of 0.1 ml/10 g mouse body weight just after the tested drug oral administration to increase the serum uric acid level. […] The negative control mice were administered PEG400 only followed by i.p. allantoxanamide. The normal group mice were administered PEG400 only followed by i.p. CMC-Na only. Food and water were withheld overnight prior to the study. Whole blood samples were collected from mice through orbital vein bleeding at the end of the study. The mice were anaesthetized with diethyl ether inside a chamber. The blood was allowed to clot for 1 h at room temperature and then centrifuged at 2350×g for 4 min to obtain the serum. The serum was kept on ice and assayed immediately. Serum uric acid was determined with the phosphotungstate method, as known to those of skill in the art.

[6] = tested on: C57BL/6 mice; conditions: mouse, in vivo
Description: Each mouse was monitored for general health conditions on a daily basis for 28 days, including examination of mortality, body weights, and behavior of the mice.

[7] = tested on: mouse; conditions: oral administration once; cited from earlier work
[8] = biological target: xanthine oxidase (Bos taurus, UniProt P80457);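 note: xanthine oxidase activity read as the initial rate of uric acid production, with water serving as the negative control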
Sequence of xanthine oxidase (P80457 whole entry): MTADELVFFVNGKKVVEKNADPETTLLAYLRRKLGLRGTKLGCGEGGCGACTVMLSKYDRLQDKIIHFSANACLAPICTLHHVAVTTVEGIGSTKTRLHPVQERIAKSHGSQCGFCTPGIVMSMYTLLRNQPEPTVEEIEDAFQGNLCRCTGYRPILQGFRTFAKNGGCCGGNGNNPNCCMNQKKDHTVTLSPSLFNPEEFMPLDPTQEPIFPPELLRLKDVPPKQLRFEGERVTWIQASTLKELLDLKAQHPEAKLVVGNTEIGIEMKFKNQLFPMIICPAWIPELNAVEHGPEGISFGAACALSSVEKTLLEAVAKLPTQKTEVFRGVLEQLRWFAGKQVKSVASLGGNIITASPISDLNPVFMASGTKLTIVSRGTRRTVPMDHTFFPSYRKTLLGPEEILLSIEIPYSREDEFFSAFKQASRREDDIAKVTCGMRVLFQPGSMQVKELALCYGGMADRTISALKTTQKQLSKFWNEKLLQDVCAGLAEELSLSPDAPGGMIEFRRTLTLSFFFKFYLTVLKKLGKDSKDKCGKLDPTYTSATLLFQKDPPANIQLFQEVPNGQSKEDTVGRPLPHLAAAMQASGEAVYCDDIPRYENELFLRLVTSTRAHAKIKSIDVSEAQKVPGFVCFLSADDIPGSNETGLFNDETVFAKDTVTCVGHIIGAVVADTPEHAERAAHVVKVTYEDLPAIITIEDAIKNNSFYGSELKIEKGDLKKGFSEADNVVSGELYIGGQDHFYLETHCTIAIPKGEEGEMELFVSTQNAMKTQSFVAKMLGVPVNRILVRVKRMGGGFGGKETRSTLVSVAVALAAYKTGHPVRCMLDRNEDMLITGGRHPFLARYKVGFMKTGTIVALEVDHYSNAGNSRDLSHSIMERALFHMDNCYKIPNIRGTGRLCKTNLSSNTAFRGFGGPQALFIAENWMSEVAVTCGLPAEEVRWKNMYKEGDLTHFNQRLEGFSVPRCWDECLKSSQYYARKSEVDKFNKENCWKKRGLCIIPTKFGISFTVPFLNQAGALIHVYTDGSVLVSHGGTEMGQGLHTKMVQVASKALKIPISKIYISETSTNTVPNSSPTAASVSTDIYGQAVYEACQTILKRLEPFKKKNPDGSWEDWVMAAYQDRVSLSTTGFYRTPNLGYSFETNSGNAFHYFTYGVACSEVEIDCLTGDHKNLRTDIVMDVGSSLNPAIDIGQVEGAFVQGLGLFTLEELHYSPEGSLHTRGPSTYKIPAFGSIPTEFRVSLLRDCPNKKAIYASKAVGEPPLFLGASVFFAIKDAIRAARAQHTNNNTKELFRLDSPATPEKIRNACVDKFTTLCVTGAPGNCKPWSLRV

T1 sequence (P80457 whole entry): as above

SMILES: O=Cc1cc(O)c(O)c([N+](=O)[O-])c1 [DHNB, 3,4-Dihydroxy-5-nitrobenzaldehyde]
- duration of inhibition of XO activity ([1]; 30 μM DHNB with 15 mU/ml (30 nM) XO, phosphate buffer pH 7.4): up to 20 h
- decay rate of DHNB with XO ([1]; 30 μM DHNB, 30 nM XO, phosphate buffer, pH dependent (higher pH faster), absorption at 327 nm): ~10^−10 mol/L/s
- conversion of inhibitor by XO after 20 h ([1]; pre-incubation with XO for 20 h): converted to DHNB-COOH completely
- stability without XO ([1]; without XO): very stable
- DPPH scavenging effect [2]: as strong of a DPPH scavenging effect as vitamin C
- HOCl scavenging effect [3]: moderate scavenging effect
- scavenging effect on ONOO− [4]: strong scavenging effect on ONOO^−
- serum urate levels ([5]; in 2 hours): significantly lowered
- serum urate levels ([5]; in 4 hours): just slightly higher than the normal level
- hair loss of pups of treated mice [6]: not observed
- histology analysis for the liver, kidney, and heart versus control mice [6]: did not show any difference
- lowest published lethal dose [7]: 312 mg/kg
- IC50 [8]: 3 µM
- pH dependence of XO inhibition [8]: neutral or slightly acidic solutions benefit the inhibition
- ability to inhibit XO at a concentration of 20 μM ([8]; 20 μM, compared with allopurinol (FIG. 2)): had inhibitory effects on XO
- time course of XO inhibition ([8]; XO (20 nM) added to xanthine (50 μM) and inhibitor (6.67 μM) to start the reaction): time-dependent inhibition
- Dixon plot, steady-state kinetic study of XO inhibition ([8]; concentration of DHNB fixed, increasing xanthine, 1 min pre-incubation): initial rates did not change with increasing xanthine concentrations
- influence of pre-incubation with XO on XO inhibition ([8]; pre-incubation with XO 0 to 5 min at 25° C., then 50 μM xanthine): significantly increased the inhibition
- XO activity after pre-incubation with inhibitor for 20 h ([8]; room temperature, 20 h, DNSA 5 μM or 10 μM): XO activity was recovered
- reversibility of XO inhibition ([8]; tested condition): irreversible XO inhibitor
